Experimental data from PubChem BioAssay AID1919014 (Molecular Pharmacology Branch, DTP, NCI, 2023).

System: NCI-H1341 complex spheroids, percent test/control
Assay: Anticancer human tumor NCI-H1341 cell line growth inhibition [AhR];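 note: spheroids exposed to agents for seven days before readout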
Settings: for IC50: curve of first compound; for viability, T/C: stronger effect = lower value
Method in brief: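 Agents were dosed in half-log steps down from roughly clinical Cmax, or from 10 microM where Cmax was unknown, alone and with AhR antagonists. Read-out: percent test/control growth of tumor spheroids containing HUVEC and MSC stromal cells.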

[1] = second compound 0.1 µM, first compound 0.0316 µM
[2] = second compound 0.1 µM, first compound 0.1 µM
[3] = second compound 0.1 µM, first compound 0.316 µM
[4] = second compound 0.1 µM, first compound 1 µM
[5] = second compound 0.1 µM, first compound 3.16 µM
[6] = second compound 0.1 µM, first compound 10 µM
[7] = second compound 0.316 µM, first compound 0.0316 µM
[8] = second compound 0.316 µM, first compound 0.1 µM
[9] = second compound 0.316 µM, first compound 0.316 µM
[10] = second compound 0.316 µM, first compound 1 µM
[11] = second compound 0.316 µM, first compound 3.16 µM
[12] = second compound 0.316 µM, first compound 10 µM
[13] = second compound 1 µM, first compound 0.0316 µM
[14] = second compound 1 µM, first compound 0.1 µM
[15] = second compound 1 µM, first compound 0.316 µM
[16] = second compound 1 µM, first compound 1 µM
[17] = second compound 1 µM, first compound 3.16 µM
[18] = second compound 1 µM, first compound 10 µM
[19] = second compound 3.16 µM, first compound 0.0316 µM
[20] = second compound 3.16 µM, first compound 0.1 µM
[21] = second compound 3.16 µM, first compound 0.316 µM
[22] = second compound 3.16 µM, first compound 1 µM
[23] = second compound 3.16 µM, first compound 3.16 µM
[24] = second compound 3.16 µM, first compound 10 µM
[25] = second compound 10 µM, first compound 0.0316 µM
[26] = second compound 10 µM, first compound 0.1 µM
[27] = second compound 10 µM, first compound 0.316 µM
[28] = second compound 10 µM, first compound 1 µM
[29] = second compound 10 µM, first compound 3.16 µM
[30] = second compound 10 µM, first compound 10 µM

SMILES: CC(C)CC(NC(=O)C(Cc1ccccc1)NC(=O)c1cnccn1)B(O)O (stereo not given) + Cc1cncc(-c2nc(NCCc3c[nH]c4ccccc34)c3ncn(C(C)C)c3n2)c1
- IC50 (second compound 0.1 µM): 5.11 nM
- IC50 (second compound 0.316 µM): 4.76 nM
- IC50 (second compound 1 µM): 4 nM
- IC50 (second compound 3.16 µM): 3.73 nM
- IC50 (second compound 10 µM): < 0.949 nM
- viability, T/C (second compound 0.1 µM, first compound 0.000949 µM): 98.4%
- viability, T/C (second compound 0.1 µM, first compound 0.003 µM): 89.7%
- viability, T/C (second compound 0.1 µM, first compound 0.00949 µM): 3.87%
- viability, T/C (second compound 0.1 µM, first compound 0.03 µM): 0.1%
- viability, T/C (second compound 0.1 µM, first compound 0.0949 µM): 0.05%
- viability, T/C (second compound 0.1 µM, first compound 0.3 µM): 0.16%
- viability, T/C (second compound 0.316 µM, first compound 0.000949 µM): 80.5%
- viability, T/C (second compound 0.316 µM, first compound 0.003 µM): 83.1%
- viability, T/C (second compound 0.316 µM, first compound 0.00949 µM): 2.53%
- viability, T/C (second compound 0.316 µM, first compound 0.03 µM): 0.14%
- viability, T/C (second compound 0.316 µM, first compound 0.0949 µM): 0.06%
- viability, T/C (second compound 0.316 µM, first compound 0.3 µM): 0.12%
- viability, T/C (second compound 1 µM, first compound 0.000949 µM): 83.4%
- viability, T/C (second compound 1 µM, first compound 0.003 µM): 65.8%
- viability, T/C (second compound 1 µM, first compound 0.00949 µM): 2.45%
- viability, T/C (second compound 1 µM, first compound 0.03 µM): 0.11%
- viability, T/C (second compound 1 µM, first compound 0.0949 µM): 0.05%
- viability, T/C (second compound 1 µM, first compound 0.3 µM): 0.5%
- viability, T/C (second compound 3.16 µM, first compound 0.000949 µM): 56.4%
- viability, T/C (second compound 3.16 µM, first compound 0.003 µM): 66.4%
- viability, T/C (second compound 3.16 µM, first compound 0.00949 µM): 1.23%
- viability, T/C (second compound 3.16 µM, first compound 0.03 µM): 0.06%
- viability, T/C (second compound 3.16 µM, first compound 0.0949 µM): 0.08%
- viability, T/C (second compound 3.16 µM, first compound 0.3 µM): 0.14%
- viability, T/C (second compound 10 µM, first compound 0.000949 µM): 28%
- viability, T/C (second compound 10 µM, first compound 0.003 µM): 58.4%
- viability, T/C (second compound 10 µM, first compound 0.00949 µM): 0.22%
- viability, T/C (second compound 10 µM, first compound 0.03 µM): 0.14%
- viability, T/C (second compound 10 µM, first compound 0.0949 µM): 0.15%
- viability, T/C (second compound 10 µM, first compound 0.3 µM): 0.17%

SMILES: COc1cc(Nc2ncc3c(n2)-c2ccc(Cl)cc2C(c2c(F)cccc2OC)=NC3)ccc1C(=O)O + Cc1cncc(-c2nc(NCCc3c[nH]c4ccccc34)c3ncn(C(C)C)c3n2)c1
- IC50 (second compound 0.1 µM): < 31.6 nM
- IC50 (second compound 0.316 µM): < 31.6 nM
- IC50 (second compound 1 µM): < 31.6 nM
- IC50 (second compound 3.16 µM): < 31.6 nM
- IC50 (second compound 10 µM): < 31.6 nM
- viability, T/C [1]: 38.2%
- viability, T/C [2]: 42.3%
- viability, T/C [3]: 38.9%
- viability, T/C [4]: 31.2%
- viability, T/C [5]: 24.2%
- viability, T/C [6]: 21%
- viability, T/C [7]: 37.1%
- viability, T/C [8]: 37.1%
- viability, T/C [9]: 34.9%
- viability, T/C [10]: 23.9%
- viability, T/C [11]: 26.9%
- viability, T/C [12]: 22.3%
- viability, T/C [13]: 36.1%
- viability, T/C [14]: 39.9%
- viability, T/C [15]: 34.3%
- viability, T/C [16]: 30.1%
- viability, T/C [17]: 25.8%
- viability, T/C [18]: 20.5%
- viability, T/C [19]: 42.2%
- viability, T/C [20]: 37.7%
- viability, T/C [21]: 40.2%
- viability, T/C [22]: 37.5%
- viability, T/C [23]: 27.5%
- viability, T/C [24]: 24%
- viability, T/C [25]: 25.4%
- viability, T/C [26]: 30.3%
- viability, T/C [27]: 29.8%
- viability, T/C [28]: 24.2%
- viability, T/C [29]: 21.2%
- viability, T/C [30]: 19.4%

SMILES: NS(=O)(=O)OCC1CC(n2ccc3c(NC4CCc5ccccc54)ncnc32)CC1O (stereo not given) + Cc1cncc(-c2nc(NCCc3c[nH]c4ccccc34)c3ncn(C(C)C)c3n2)c1
- IC50 (second compound 0.1 µM): 108 nM
- IC50 (second compound 0.316 µM): 83.3 nM
- IC50 (second compound 1 µM): < 31.6 nM
- IC50 (second compound 3.16 µM): < 31.6 nM
- IC50 (second compound 10 µM): < 31.6 nM
- viability, T/C [1]: 50.1%
- viability, T/C [2]: 52.7%
- viability, T/C [3]: 33.8%
- viability, T/C [4]: 15.5%
- viability, T/C [5]: 14%
- viability, T/C [6]: 12.5%
- viability, T/C [7]: 54.4%
- viability, T/C [8]: 48.5%
- viability, T/C [9]: 34.8%
- viability, T/C [10]: 17.6%
- viability, T/C [11]: 16.8%
- viability, T/C [12]: 12.4%
- viability, T/C [13]: 42%
- viability, T/C [14]: 43.6%
- viability, T/C [15]: 35.5%
- viability, T/C [16]: 18.4%
- viability, T/C [17]: 15.7%
- viability, T/C [18]: 15.8%
- viability, T/C [19]: 49.4%
- viability, T/C [20]: 41.6%
- viability, T/C [21]: 41.4%
- viability, T/C [22]: 27.6%
- viability, T/C [23]: 19.5%
- viability, T/C [24]: 17%
- viability, T/C [25]: 26.4%
- viability, T/C [26]: 31.7%
- viability, T/C [27]: 29.9%
- viability, T/C [28]: 25.2%
- viability, T/C [29]: 21.4%
- viability, T/C [30]: 20.1%

SMILES: O=C(C=Cc1cccc(S(=O)(=O)Nc2ccccc2)c1)NO + Cc1cncc(-c2nc(NCCc3c[nH]c4ccccc34)c3ncn(C(C)C)c3n2)c1
- IC50 (second compound 0.1 µM): 278 nM
- IC50 (second compound 0.316 µM): 366 nM
- IC50 (second compound 1 µM): 179 nM
- IC50 (second compound 3.16 µM): 150 nM
- IC50 (second compound 10 µM): < 31.6 nM
- viability, T/C [1]: 71.7%
- viability, T/C [2]: 80.8%
- viability, T/C [3]: 43.8%
- viability, T/C [4]: 16%
- viability, T/C [5]: 5.29%
- viability, T/C [6]: 0.53%
- viability, T/C [7]: 76.2%
- viability, T/C [8]: 74.7%
- viability, T/C [9]: 55.1%
- viability, T/C [10]: 15.3%
- viability, T/C [11]: 5.78%
- viability, T/C [12]: 0.65%
- viability, T/C [13]: 80.3%
- viability, T/C [14]: 55.7%
- viability, T/C [15]: 44.9%
- viability, T/C [16]: 22.9%
- viability, T/C [17]: 5.39%
- viability, T/C [18]: 0.5%
- viability, T/C [19]: 71.2%
- viability, T/C [20]: 55.6%
- viability, T/C [21]: 38.1%
- viability, T/C [22]: 13.1%
- viability, T/C [23]: 4.08%
- viability, T/C [24]: 0.56%
- viability, T/C [25]: 37%
- viability, T/C [26]: 33.9%
- viability, T/C [27]: 20.2%
- viability, T/C [28]: 9.91%
- viability, T/C [29]: 2.99%
- viability, T/C [30]: 0.32%
